From patent publication US20230355674A1, “DONOR T-CELLS WITH KILL SWITCH” (CSL Behring LLC, priority 2020, published 2023)
Entries after “also recorded” stand apart in the source; their conditions may differ.

How the values were obtained:
[1] = 6-TG selection and 6-TG challenge of gRNA modified CEM cells (cell viability); assay type: cell-based; conditions: human, wild type (unmodified) CEM T cell leukemia cells; wild type CEM, 6-TG at 40 uM
Protocol: (§1) Cells confirmed to be transfected with the gRNA via the use of the tracr RNA (24 hours post electroporation) were purified using fluorescence activated cells sorting (FACS) prior to culture in 10 μM 6-TG for 1 week replenished with fresh 6-TG every 48-72 hours.
(§2) After 10 days in the presence of 10 uM 6-TG, replenished with fresh 6-TG every 48-72 hours, each cell line was challenged with increasing concentrations of 6-thioguanine (6-TG) and cell viability was compared to wild type (unmodified) CEM cells (see FIG. 40B).

CEM cells = experiment: Negative selection with MTX or MPA, transduced or transfected CEM cells; assay type: cell-based; conditions: 1 μM or 10 μM of MPA, day 0 to day 14
Protocol: Transduced or transfected CEM cells (such as those from Example 1) were cultured with or without MTX from day 0 to day 14. The medium was refreshed every 3 to 4 days. GFP was analyzed on flow machine and InDel % was analyzed by T7E1 assay.

Jurkat cells [2] = experiment: HPRT knockout Jurkat cells, resistance to 6-TG (luminescence, ATP detection); assay type: cell-based; conditions: 6-TG tested up to 10 uM, vs wild type
Protocol: (§3) Jurkat cells were electroporated with a ribonucleoprotein (RNP) complex containing guide RNA (gRNA; GS-4; designated IDT-4) together with the Cas9 and tracrRNA. Cells which were confirmed to be transfected with the gRNA via tracr RNA were purified using fluorescence activated cells sorting (FACS) and subsequently cultured for 72 hours. Increasing concentrations of 6-thioguanine (6-TG) were then administered to the transduced cultured cells to assess resistance. Wild type (unmodified) Jurkat cells were used as a control.
Luminescence (ATP detection) was used to assess cell viability.

HPRT protein [3] = experiment: Western blot of HPRT protein in Jurkat cells; assay type: cell-based, human; conditions: vs unmodified (WT)
Protocol: as §3
Unmodified (WT) and IDT-4 modified Jurkat cells were also analyzed for HPRT protein using Western blot (see FIG. 25). […] Actin protein detection (bottom panel) was used as a protein loading control.

Jurkat cells [4] = experiment: HPRT knockout Jurkat cells, MTX dose response; assay type: cell-based; conditions: MTX 0.00625 and 0.0125 μM, cultured for 5 days
Protocol: Jurkat cells (unmodified; WT) were cultured with increasing concentrations of methotrexate (MTX) to determine the MTX dosage window required to kill WT cells (see FIG. 28). A dose range of between 0.00625 and 0.025 μM MTX was selected for subsequent assessment of HPRT Knockout (IDT-4 modified) Jurkat cells.
Dose response of HPRT Knockout (IDT-4 modified) Jurkat cells to MTX was compared to unmodified Jurkat cells (WT) to determine sensitivity to MTX (see FIG. 29).

HPRT protein [5] = experiment: Western blot of HPRT protein in gRNA modified CEM cells; assay type: cell-based, human
Protocol: (§4) CEM T cell leukemia cells were electroporated (1600V, 10 ms pulse width, 3 pulses by using the Neon Transfection system) with ribonucleoprotein (RNP) complexes containing guide RNA (see Example 21) designed in-house and obtained from Integrated DNA Technologies (IDT), together with Cas9 and tracrRNA. Cells confirmed to be transfected with the gRNA via the use of the tracr RNA (24 hours post electroporation) were purified using fluorescence activated cells sorting (FACS) prior to culture for a further 72 hours, followed by assessment of cell survival when challenged with increasing concentrations of 6-thioguanine (6-TG) compared to wild type (unmodified) CEM cells.
Unmodified and modified CEM cells were also used for isolation of protein and detection of the HPRT protein using Western blot (FIG. 39, top panel). […] Actin protein detection (FIG. 39, bottom panel) was used as a protein loading control.
as §4, with “(gRNA; legend)” for “(see Example 21)”, “10 days in the presence” for “a further 72 hours, followed by assessment”, “10 uM 6-TG, replenished” for “cell survival when challenged”, “fresh 6-TG every 48-72 hours.” for “increasing concentrations of 6-thioguanine (6-TG) compared to wild type (unmodified) CEM cells.”
Following the selection period, protein was extracted from each cell and used for western blot-based detection of the HPRT protein. Detection of beta-actin was used as a protein loading control (Actin Antibody (ACTBD11B7): sc-81178. Santa Cruz).

HPRT1 gene [6] = experiment: ICE scoring (indel, knockout score) of gRNA editing in primary T cells; assay type: cell-based; conditions: primary human T cells
Description: (§5) Indel Percentage—The editing efficiency (percentage of the pool with non-wild type sequence) as determined by comparing the edited trace to the control trace. In the ICE algorithm, potential editing outcomes are proposed and fitted to the observed data using linear regression.
(§6) Knockout Score—Represents the proportion of cells that have either a frameshift or 21+bp indel. This score is a useful measure for those who are interested in understanding how many of the contributing indels are likely to result in a functional Knockout (KO) of the targeted gene.
FIG. 44 illustrates a method of modifying primary T-cells in accordance with one embodiment of the present disclosure. FIGS. 45A-45C illustrate 6-TG dose responses seven days following the modification of the primary T-cells in accordance with the modification methods described herein. In particular, FIGS. 45A and 45B illustrate the targeting of Exon 3 (guide RNA 13) and Exon 8 (guide RNA 21). The references “#9” and “#10” denote T-cell number and UT control (electroporated without RNP). […]
(§7) Peripheral blood mononuclear cells (PBMC) were isolated from Australian Red Cross Blood donor samples (n=2) via density centrifugation. […] By day 7, the original mixed PBMC population was determined to be primarily CD3+ T cells (flow cytometry; data not shown).

primary human T cells [7] = experiment: 6-TG resistance of gRNA modified primary human T cells (viability); assay type: cell-based; conditions: donors #9 and #10, 1 uM 6-TG, day 8 and day 13, vs unmodified
Description: FIG. 44 illustrates a method of modifying primary T-cells in accordance with one embodiment of the present disclosure. FIGS. 45A-45C illustrate 6-TG dose responses seven days following the modification of the primary T-cells in accordance with the modification methods described herein. In particular, FIGS. 45A and 45B illustrate the targeting of Exon 3 (guide RNA 13) and Exon 8 (guide RNA 21). The references “#9” and “#10” denote T-cell number and UT control (electroporated without RNP). FIG. 45C illustrates unmodified cells from donor #9 and donor #10 tested with increasing concentrations of 6-TG (day 4). It was observed that the […] primary T-cells were very sensitive to low doses of 6-TG. ICE Scores are shown below.
as §7
The cells were then cultured for about 7 and about 12 days in the presence of 1 uM 6-TG, with 6-TG replenished every about 2 to about 3 days. At each of these time points, the cells were assessed for the proportion of viable cells compared to untreated (UT) controls.

primary human T cells [8] = experiment: MTX dose response in 6-TG selected primary human T cells; assay type: cell-based; conditions: primary human T cells after 12 days 1 μM 6-TG, MTX dose range 2 days, thymidine 16 μM
Protocol: Primary human T cells modified using guide RNAs targeting the HPRT1 gene and subsequently placed under selection pressure for 12 days with 1 μM 6-TG, with 6-TG replenished every 2 to 3 days, were subjected to a dose range of MTX in the presence of thymidine 16 μM for 2 days and assessed for cell viability.

HPRT1 gene [9] = experiment: ICE scoring (indel, knockout score) of gRNA editing in CEM cells; assay type: cell-based, human
Description: The top candidate guide RNAs from Example 21 were screen in Jurkat cell lines (n=1) and validated in CEM cell lines (n=2). For instance, Jurkat cells were electroporated with a ribonucleoprotein (RNP) complex containing guide RNA (e.g. an RNP including a guide RNA having any one of SEQ ID NOS: 40-49) together with the Cas9 and tracrRNA. The methodology and analysis was the same for both Jurkat cell lines and CEM cell lines (see also, FIG. 37). Following electroporation, cell viability was measured at different concentrations of 6-TG (see FIG. 36).
as §5, §6, §4

[10] = tested on: CEM T cell leukemia cells; experiment: 6-TG selection and 6-TG challenge of gRNA modified CEM cells (cell viability); assay type: cell-based; conditions: CEM, 10 μM 6-TG for 1 week, vs wild-type
Protocol: as §1, §2

[11] = after 10 days of 6-TG selection (10 uM)

For `Nc1nc2nc[nH]c2c(=S)[nH]1` [6-TG, 6-thioguanine, reference compound], which viability at 40 µM [1] is on record?
The viability at 40 µM was roughly 10%.

With `COc1c(C)c2c(c(O)c1C/C=C(\C)CCC(=O)O)C(=O)OC2` [MPA, Mycophenolic acid] as the compound, how does the “HPRT knockout population of CEM cells” value (CEM cells) read?
The value was “eliminated at a faster pace”.

What about the “GFP population of transduced (HPRT knockdown) cells” value (CEM cells; CEM cells) of the same compound?
Its value is “decreased”.

With “IDT-4: lead HPRT knockout guide RNA GGTTATGACCTTGATTTATT (listed as DNA, chemistry not given here)” as the compound, how does the “cell viability with increasing doses of 6-TG” value (Jurkat cells [2]) read?
Its value is “resistance to increasing doses of 6-TG”.

And the “HPRT protein level (Western blot)” value (HPRT protein [3])?
The value was “undetectable levels of HPRT”.

What about the “sensitivity to MTX compared to wild type cells” value (Jurkat cells [4]) of the same compound?
Its value is “increased sensitivity to MTX”.

What does the source list for “gRNA 12: sgRNA guide and PAM GCCCCCCTTGAGCACACAGAGGG, HPRT 1 target Exon 4 (listed as DNA, chemistry not given here)”?
HPRT protein (Western blot) (HPRT protein [5]; 72 hours post-electroporation, no 6-TG selection, listed as guide 12): undetectable levels of HPRT; also recorded: non-detectable; HPRT protein (Western blot) (HPRT protein [5]; [11]): remained undetectable

What does the source list for “gRNA 13: sgRNA guide and PAM AGCCCCCCTTGAGCACACAGAGG, HPRT 1 target Exon 3 (listed as DNA, chemistry not given here)”?
knockout efficiency (ICE scoring) (HPRT1 gene [6]): about 43%; HPRT protein (Western blot) (HPRT protein [5]; 72 hours post-electroporation, no 6-TG selection, listed as guide 13): undetectable levels of HPRT; also recorded: non-detectable; HPRT protein (Western blot) (HPRT protein [5]; [11]): remained undetectable; proportion of viable cells under 6-TG (primary human T cells [7]): increased viability; sensitivity to MTX compared to wild-type non-modified cells (UT) (primary human T cells [8]): increased sensitivity to MTX

For “gRNA 15: sgRNA guide and PAM GATGTGATGAAGGAGATGGGAGG, HPRT 1 target Exon 3 (listed as DNA, chemistry not given here)”, which “editing (ICE scoring), in words” value (HPRT1 gene [9]) is on record?
The value was “efficient editing”.

What about the “HPRT protein (Western blot)” value (HPRT protein [5]; [11]) of the same compound?
The value was “limited to no detectable levels of HPRT”.

And the “cell viability under 6-TG selection” value [10]?
Its value is “more variable viability”.

Which “HPRT protein (Western blot)” value (HPRT protein [5]; 72 hours post-electroporation, no 6-TG selection, listed as guide 17) does the source give for “gRNA 17: sgRNA guide and PAM GTAGCCCTCTGTGTGCTCAAGGG, HPRT 1 target Exon 3 (listed as DNA, chemistry not given here)” here?
Its value is “undetectable levels of HPRT; also recorded: non-detectable”.

And the “HPRT protein (Western blot)” value (HPRT protein [5]; [11])?
The value was “remained undetectable”.

For “gRNA 18: sgRNA guide and PAM TTATGCTGAGGATTTGGAAAGGG, HPRT 1 target Exon 2 (listed as DNA, chemistry not given here)”, which “editing (ICE scoring), in words” value (HPRT1 gene [9]) is on record?
The value was “efficient editing”.

And the “HPRT protein (Western blot)” value (HPRT protein [5]; 72 hours post-electroporation, no 6-TG selection, listed as guide 18)?
Its value is “reduced compared to wildtype; also recorded: detectable levels of HPRT protein”.

And the “HPRT protein (Western blot)” value (HPRT protein [5]; [11])?
The value was “limited to no detectable levels of HPRT”.

What about the “cell viability under 6-TG selection” value [10] of the same compound?
Its value is “more variable viability”.

Which results are given for “gRNA 19: sgRNA guide and PAM GTGCTTTGATGTAATCCAGCAGG, HPRT 1 target Exon 3 (listed as DNA, chemistry not given here)”?
editing (ICE scoring), in words (HPRT1 gene [9]): zero editing; HPRT protein (Western blot) (HPRT protein [5]; 72 hours post-electroporation, no 6-TG selection, listed as guide 19): reduced compared to wildtype; also recorded: detectable levels of HPRT protein; HPRT protein (Western blot) (HPRT protein [5]; [11]): limited to no detectable levels of HPRT; cell viability under 6-TG selection [10]: more variable viability

With “gRNA 22: sgRNA guide and PAM GAAGTATTCATTATAGTCAAGGG, HPRT 1 target Exon 8 (listed as DNA, chemistry not given here)” as the compound, how does the “HPRT protein (Western blot)” value (HPRT protein [5]; 72 hours post-electroporation, no 6-TG selection, listed as guide 22) read?
The value was “undetectable levels of HPRT; also recorded: non-detectable”.

What about the “HPRT protein (Western blot)” value (HPRT protein [5]; [11]) of the same compound?
Its value is “remained undetectable”.
